How the values were obtained:
[1] = target: human CXCR3A (Homo sapiens (Human), UniProt P49682); assay: FLIPR assay; type: cell-based; details: CHO-K1 cells expressing the human CXCR3A coupled to Galpha(16); CXCL10 agonist 20 nM; Fluo-4-AM fluorescence; mean values if determined several times
In short: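 CHO-K1 cells expressing CXCR3A coupled to Gα16 were loaded with Fluo-4-AM for 1 h in Hepes-buffered HBSS, pH 7.4, with 5 mM probenecid. Compound dilutions were added on the FLIPR, followed by CXCL10 (added as a 20 nM solution). Baseline-subtracted peak fluorescence was fitted to a single-site curve for IC50.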

[2] = target: CXCR3 (Homo sapiens (Human), UniProt P49682); assay: Receptor internalization assay; type: cell-based; details: human whole blood; final CXCL10 concentration 9 nM; 30 min 37° C.; CXCR3 cell surface expression on CD3 positive cells, flow cytometer; read-out: Internalization IC50
Chain of CXCR3 (P49682 whole entry): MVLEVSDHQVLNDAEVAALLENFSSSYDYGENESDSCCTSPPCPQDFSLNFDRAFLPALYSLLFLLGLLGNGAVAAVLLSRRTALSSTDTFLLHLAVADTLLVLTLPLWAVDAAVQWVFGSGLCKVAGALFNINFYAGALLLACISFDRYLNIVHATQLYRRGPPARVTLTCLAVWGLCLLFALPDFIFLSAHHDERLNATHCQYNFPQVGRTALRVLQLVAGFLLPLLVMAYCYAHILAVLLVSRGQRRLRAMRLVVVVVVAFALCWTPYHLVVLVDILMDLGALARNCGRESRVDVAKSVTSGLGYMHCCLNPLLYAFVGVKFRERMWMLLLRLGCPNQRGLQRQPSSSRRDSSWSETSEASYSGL
In short: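 In human whole blood, compounds were incubated with CXCL10 (9 nM final) for 30 min at 37 °C to drive receptor internalization, then stained with anti-CXCR3/CD3 antibodies and lysed of red cells. Flow cytometry measured mean surface CXCR3 fluorescence on CD3+ cells, and IC50 came from single-site dose-response fits.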

Chain of human CXCR3A (P49682 whole entry): as above

Row | SMILES | IC50 [1] | IC50 [2]
1 | C[C@@H]1CN(c2sc(C(F)(F)F)nc2-c2nc3ccccc3[nH]2)CCN1C(=O)Cn1cnc2c1CCN(C)C2 [Example 209, 1-{(R)-4-[4-(1H-Benzoimidazol-2-yl)-2-trifluoromethyl-thiazol-5-yl]-2-methyl-piperazin-1-yl}-2-(5-methyl-4,5,6,7-tetrahydro-imidazo[4,5-c]pyridin-1-yl)-ethanone] | 3 nM | 101 nM
2 | C[C@@H]1CN(c2sc(C(F)(F)F)nc2-c2nc3ccccc3[nH]2)CCN1C(=O)Cn1cnc2c1CN(C)CC2 [Example 210, 1-{(R)-4-[4-(1H-Benzoimidazol-2-yl)-2-trifluoromethyl-thiazol-5-yl]-2-methyl-piperazin-1-yl}-2-(5-methyl-4,5,6,7-tetrahydro-imidazo[4,5-c]pyridin-3-yl)-ethanone] | 1 nM | 121 nM
3 | Cc1nn(CC(=O)N2CCN(c3sc(C(F)(F)F)nc3-c3nc4ccccc4[nH]3)C[C@H]2C)cc1CN(C)C [Example 211, 1-{(R)-4-[4-(1H-Benzoimidazol-2-yl)-2-trifluoromethyl-thiazol-5-yl]-2-methyl-piperazin-1-yl}-2-(4-dimethylaminomethyl-3-methyl-pyrazol-1-yl)-ethanone] | 1 nM | 227 nM
4 | Cc1ncnn1CC(=O)N1CCN(c2sc(C(F)(F)F)nc2-c2nc3ccccc3[nH]2)C[C@H]1C [Example 212, 1-{(R)-4-[4-(1H-Benzoimidazol-2-yl)-2-trifluoromethyl-thiazol-5-yl]-2-methyl-piperazin-1-yl}-2-(5-methyl-[1,2,4]triazol-1-yl)-ethanone] | 4 nM | 737 nM
5 | Cc1ncn(CC(=O)N2CCN(c3sc(C(F)(F)F)nc3-c3nc4ccccc4[nH]3)C[C@H]2C)n1 [Example 213, 1-{(R)-4-[4-(1H-Benzoimidazol-2-yl)-2-trifluoromethyl-thiazol-5-yl]-2-methyl-piperazin-1-yl}-2-(3-methyl-[1,2,4]triazol-1-yl)-ethanone] | 1 nM | 373 nM
6 | Cc1nn(CC(=O)N2CCN(c3sc(C(F)(F)F)nc3-c3nc4ccccc4[nH]3)C[C@H]2C)c(C)c1CN(C)C [Example 214, 1-{(R)-4-[4-(1H-Benzoimidazol-2-yl)-2-trifluoromethyl-thiazol-5-yl]-2-methyl-piperazin-1-yl}-2-(4-dimethylaminomethyl-3,5-dimethyl-pyrazol-1-yl)-ethanone] | 2 nM | 72 nM
7 | C[C@@H]1CN(c2sc(C(F)(F)F)nc2-c2nc3ccccc3[nH]2)CCN1C(=O)Cn1cc2c(n1)CCN(C)C2 [Example 215, 1-{(R)-4-[4-(1H-Benzoimidazol-2-yl)-2-trifluoromethyl-thiazol-5-yl]-2-methyl-piperazin-1-yl}-2-(5-methyl-4,5,6,7-tetrahydro-pyrazolo[4,3-c]pyridin-2-yl)-ethanone] | 2 nM | 271 nM
8 | C[C@@H]1CN(c2sc(C(F)(F)F)nc2-c2nc3ccccc3[nH]2)CCN1C(=O)Cn1ncc2c1CCN(C)C2 [Example 216, 1-{(R)-4-[4-(1H-Benzoimidazol-2-yl)-2-trifluoromethyl-thiazol-5-yl]-2-methyl-piperazin-1-yl}-2-(5-methyl-4,5,6,7-tetrahydro-pyrazolo[4,3-c]pyridin-1-yl)-ethanone] | 2 nM | 90 nM
9 | C[C@@H]1CN(c2sc(C(F)(F)F)nc2-c2nc3ccccc3[nH]2)CCN1C(=O)CN1CCc2[nH]ncc2C1 [Example 217, 1-{(R)-4-[4-(1H-Benzoimidazol-2-yl)-2-trifluoromethyl-thiazol-5-yl]-2-methyl-piperazin-1-yl}-2-(1,4,6,7-tetrahydro-pyrazolo[4,3-c]pyridin-5-yl)-ethanone] | 21 nM | 5010 nM
10 | Cc1nc(CN(C)C)nn1CC(=O)N1CCN(c2sc(C(F)(F)F)nc2-c2nc3ccccc3[nH]2)C[C@H]1C [Example 218, 1-{(R)-4-[4-(1H-Benzoimidazol-2-yl)-2-trifluoromethyl-thiazol-5-yl]-2-methyl-piperazin-1-yl}-2-(3-dimethylaminomethyl-5-methyl-[1,2,4]triazol-1-yl)-ethanone] | 8 nM | 540 nM
11 | Cc1cc(CC(=O)N2CCN(c3sc(C(F)(F)F)nc3-c3nc4ccccc4[nH]3)C[C@H]2C)cc(C)n1 [Example 219] | 4 nM | 1460 nM
12 | Cc1cc(C)nc(CC(=O)N2CCN(c3sc(C(F)(F)F)nc3-c3nc4ccccc4[nH]3)C[C@H]2C)c1 [Example 220] | 19 nM | 2620 nM
13 | C[C@@H]1CN(c2sc(C(F)(F)F)nc2-c2nc3ccccc3[nH]2)CCN1C(=O)Cn1cc(C2CCNCC2)cn1 [Example 221, 1-{(R)-4-[4-(1H-Benzoimidazol-2-yl)-2-trifluoromethyl-thiazol-5-yl]-2-methyl-piperazin-1-yl}-2-(4-piperidin-4-yl-pyrazol-1-yl)-ethanone] | 6 nM | 1090 nM
14 | C[C@@H]1CN(c2sc(C(F)(F)F)nc2-c2nc3ccccc3[nH]2)CCN1C(=O)Cn1cc(C2CCN(C)CC2)cn1 [Example 222, 1-{(R)-4-[4-(1H-Benzoimidazol-2-yl)-2-trifluoromethyl-thiazol-5-yl]-2-methyl-piperazin-1-yl}-2-[4-(1-methyl-piperidin-4-yl)-pyrazol-1-yl]-ethanone] | 16 nM | 1500 nM
15 | C[C@@H]1CN(c2sc(CN(C)C)nc2-c2nc3ccccc3[nH]2)CCN1C(=O)Cn1cnc2cccnc21 [Example 223, 1-{(R)-4-[4-(1H-Benzoimidazol-2-yl)-2-dimethylaminomethyl-thiazol-5-yl]-2-methyl-piperazin-1-yl}-2-imidazo[4,5-b]pyridin-3-yl-ethanone] | 27 nM | 1130 nM
16 | C[C@@H]1CN(c2sc(CO)nc2-c2nc3ccccc3[nH]2)CCN1C(=O)Cn1cnc2cccnc21 [Example 225, 1-{(R)-4-[4-(1H-Benzoimidazol-2-yl)-2-hydroxymethyl-thiazol-5-yl]-2-methyl-piperazin-1-yl}-2-imidazo[4,5-b]pyridin-3-yl-ethanone] | 54 nM | 3460 nM
17 | O=C(Cn1cnc2cccnc21)N1CCN(c2sc(C(F)(F)F)nc2-c2nc3ccccc3[nH]2)CC1 [Example 226, 1-{4-[4-(1H-Benzoimidazol-2-yl)-2-trifluoromethyl-thiazol-5-yl]-piperazin-1-yl}-2-imidazo[4,5-b]pyridin-3-yl-ethanone] | 1 nM | 363 nM
18 | Cc1nc(C)n(CC(=O)N2CCN(c3sc(C(F)(F)F)nc3-c3nc4ccccc4[nH]3)C[C@H]2CN(C)C)n1 [Example 227, 1-{(R)-4-[4-(1H-Benzoimidazol-2-yl)-2-trifluoromethyl-thiazol-5-yl]-2-dimethylaminomethyl-piperazin-1-yl}-2-(3,5-dimethyl-[1,2,4]triazol-1-yl)-ethanone] | 8 nM | 69 nM
19 | CN(C)C[C@@H]1CN(c2sc(C(F)(F)F)nc2-c2nc3ccccc3[nH]2)CCN1C(=O)Cn1cnc2cccnc21 [Example 228, 1-{(R)-4-[4-(1H-Benzoimidazol-2-yl)-2-trifluoromethyl-thiazol-5-yl]-2-dimethylaminomethyl-piperazin-1-yl}-2-imidazo[4,5-b]pyridin-3-yl-ethanone] | 4 nM | 12 nM
20 | CN(C)C[C@@H]1CN(c2scnc2-c2nc3ccccc3[nH]2)CCN1C(=O)Cn1cnc2cccnc21 [Example 229, 1-{(R)-4-[4-(1H-Benzoimidazol-2-yl)-thiazol-5-yl]-2-dimethylaminomethyl-piperazin-1-yl}-2-imidazo[4,5-b]pyridin-3-yl-ethanone] | 1 nM | 98 nM
21 | Cc1nc(C)n(CC(=O)N2CCN(c3sc(C(F)(F)F)nc3-c3nc4c(F)cccc4[nH]3)C[C@H]2C)n1 [Example 230, 2-(3,5-Dimethyl-[1,2,4]triazol-1-yl)-1-{(R)-4-[4-(4-fluoro-1H-benzoimidazol-2-yl)-2-trifluoromethyl-thiazol-5-yl]-2-methyl-piperazin-1-yl}-ethanone] | 1 nM | 139 nM
22 | Cc1nc(C)n(CC(=O)N2CCN(c3sc(C(F)(F)F)nc3-c3nc4c(F)c(F)ccc4[nH]3)C[C@H]2C)n1 [Example 231, 1-{(R)-4-[4-(4,5-Difluoro-1H-benzoimidazol-2-yl)-2-trifluoromethyl-thiazol-5-yl]-2-methyl-piperazin-1-yl}-2-(3,5-dimethyl-[1,2,4]triazol-1-yl)-ethanone] | 1 nM | 332 nM
23 | Cc1nc(C)n(CC(=O)N2CCN(c3sc(C(F)(F)F)nc3-c3nc4c(C(F)(F)F)cccc4[nH]3)C[C@H]2C)n1 [Example 232, 2-(3,5-Dimethyl-[1,2,4]triazol-1-yl)-1-{(R)-2-methyl-4-[2-trifluoromethyl-4-(4-trifluoromethyl-1H-benzoimidazol-2-yl)-thiazol-5-yl]-piperazin-1-yl}-ethanone] | 7 nM | 494 nM
24 | Cc1nc(C)n(CC(=O)N2CCN(c3sc(C(F)(F)F)nc3-c3nc4ccc(N5CCOCC5)cc4[nH]3)C[C@H]2C)n1 [Example 233, 2-(3,5-Dimethyl-[1,2,4]triazol-1-yl)-1-{(R)-2-methyl-4-[4-(6-morpholin-4-yl-1H-benzoimidazol-2-yl)-2-trifluoromethyl-thiazol-5-yl]-piperazin-1-yl}-ethanone] | 6 nM | 376 nM
